From article PMC7594840, “Identification of histone deacetylase inhibitors with (arylidene)aminoxy scaffold active in uveal melanoma cell lines” (Journal of Enzyme Inhibition and Medicinal Chemistry, 2020)

Assays:
HDAC1 = target: T1, HDAC1 (Homo sapiens, UniProt Q13547); experiment: Microfluidic chip-based HDAC inhibition assay (Calliper off-chip mobility shift), HDAC1; type: biochemical; settings: duplicate, 10-point dose curve, 3-fold serial dilution from 30 μM
T1 construct: purchased BPS Bioscience
T1 sequence (Q13547 whole entry): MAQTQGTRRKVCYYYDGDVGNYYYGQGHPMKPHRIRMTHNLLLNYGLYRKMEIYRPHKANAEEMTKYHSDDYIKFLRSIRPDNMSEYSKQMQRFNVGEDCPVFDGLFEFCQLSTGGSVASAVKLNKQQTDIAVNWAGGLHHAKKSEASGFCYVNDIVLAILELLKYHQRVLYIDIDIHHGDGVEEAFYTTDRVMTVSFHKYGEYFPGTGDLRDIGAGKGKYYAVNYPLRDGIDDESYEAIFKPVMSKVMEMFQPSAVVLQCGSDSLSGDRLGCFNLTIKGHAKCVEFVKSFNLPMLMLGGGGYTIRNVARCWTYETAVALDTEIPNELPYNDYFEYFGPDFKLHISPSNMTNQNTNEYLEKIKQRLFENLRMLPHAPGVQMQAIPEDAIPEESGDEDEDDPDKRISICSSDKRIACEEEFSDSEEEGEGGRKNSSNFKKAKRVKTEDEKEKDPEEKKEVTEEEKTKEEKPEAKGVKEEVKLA
Source text: (§8) Test compounds were screened against human histone deacetylases (HDACs) 1, 3, 6, and 8 using the Calliper off-chip mobility shift assay technology. All HDACs were purchased from BPS Bioscience and four selective substrates were used according to the targeted isozyme. […] Buffers components, except for CR-3 (LabChip Coating Reagent 3, purchased from PerkinElmer, Product Number 760050) and Panobinostat (LBH589, purchased from ApexBio Technology)[35]^,[36] were purchased from Sigma Aldrich. […] (all purchased from Selleck Chemicals).

[1] = tested on: HeLa nuclear extract containing a mixture of HDACs; experiment: HDAC Fluorimetric Assay/Drug Discovery Kit (BIOMOL) on HeLa nuclear extract; type: biochemical
Experimental: The hydroxamic acids 1a–c, 2a–f and carboxylic acids 3a–c, 4a––e synthesised in this study were preliminarily tested on a HeLa nuclear extract containing a mixture of HDACs, by using a commercially available HDAC assay kit (BIOMOL). SAHA and Trichostatin A (TSA) were used as positive controls.
HDAC inhibitory activity of newly synthesised compounds was evaluated using an HDAC Fluorimetric Assay/Drug Discovery Kit (AK-500, BIOMOL). […] Reactions were stopped after 30 min by adding Fluor de Lys^TM Developer. After the addition of this developer, the plate was incubated at room temperature for 15 min, the fluorescence intensity of the wells was measured on a fluorometric plate reader with excitation set at 360 nm and emission detection set at 460 nm.

[2] = tested on: HDAC target genes (RAD54L, RAD51, CLU) in Mel270 cells; experiment: QRT-PCR of mRNA levels of HDAC target genes, Mel270 cells; type: cell-based, human; settings: 10 µM compound, 48 h, normalised to GAPDH
Experimental: Finally, we determined if the treatment of UM cells 92.1 and Mel270 with our compounds could modify the mRNA levels of HDAC target genes. […]
Figure 9. Modulation of RAD54L, RAD51 and CLU mRNA expression by the different compounds in UM cells 92.1 and Mel270. Cells were treated for 48 h with 10 µM compound or the corresponding amount of DMSO. Data, normalised to GAPDH housekeeping gene, are expressed as fold change relative to the DMSO control. Error bars represent SD of triplicates. One representative experiment is shown.
(§1) Treatments with the compounds were performed with slight differences, according to the final use of the samples. For the cell viability assay with MTT, cells were seeded in 96-well flat-bottom plates in culture medium at 5 × 10^3 cells/well, whereas for cell cycle analysis and QRT-PCR cells were seeded in 24-well plates at 5 × 10^4 cells/well. The day after, a culture medium containing the appropriate amount of compounds or their solvent control DMSO was added, and treatments were carried out for the indicated time.
To assess the modulation of gene expression, cells were harvested at 48 h of treatment and total RNA was isolated using the NucleoSpin RNA kit (Macherey-Nagel) and reverse-transcribed with the SuperScript III Reverse Transcriptase (Invitrogen). […] Expression levels of mRNAs relative to untreated control were calculated by the ΔΔCT method (Table 3).

Mel270 cells [3] = experiment: Cell cycle distribution by flow cytometry (PI), Mel270 cells; type: cell-based, human; settings: 10 µM compound, 48 h
Experimental: (§2) We then investigated whether this anti-proliferative effect was due to the blockade in the G0/G1 phase of the cell cycle, as expected for SAHA[31].
(§3) Figure 8. Influence of the different compounds and DMSO solvent control on cell cycle distribution in UM 92.1 and Mel270 cells. The cells were treated with 10 µM compound for 48 h and cell cycle distribution was analysed by flow cytometry after fixation and staining with PI. The percentage of cells in each category is indicated. One representative experiment is shown.
as §1
(§4) To assess the cell cycle status of treated samples, after 48 h of incubation the cells were harvested, washed twice with cold PBS, and fixed in 70% ethyl alcohol at −20 °C overnight. The day after, the samples were washed with cold PBS and incubated for 20 min with propidium iodide (PI) staining solution (50 μg/ml PI, 0.05% Triton X-100, 0.2 mg/ml RNase A in PBS) at room temperature. Flow cytometric analysis of DNA content was performed using a FACScan flow cytometer with the CellQuest software (BD Biosciences). Gating on viable cells was performed using physical parameters and 10^4 gated events were acquired. Cell cycle analysis on the gated PI distribution was performed using Modfit software.

92.1 cells [4] = experiment: Cell cycle distribution by flow cytometry (PI), 92.1 cells; type: cell-based, human; settings: 10 µM compound, 48 h
Experimental: as §2, §3, §1, §4

HDAC8 = target: T2, HDAC8 (Homo sapiens, UniProt Q9BY41); experiment: Microfluidic chip-based HDAC inhibition assay (Calliper off-chip mobility shift), HDAC8; type: biochemical; settings: duplicate, 10-point dose curve, 3-fold serial dilution from 30 μM
T2 construct: purchased BPS Bioscience
T2 sequence (Q9BY41 1-377): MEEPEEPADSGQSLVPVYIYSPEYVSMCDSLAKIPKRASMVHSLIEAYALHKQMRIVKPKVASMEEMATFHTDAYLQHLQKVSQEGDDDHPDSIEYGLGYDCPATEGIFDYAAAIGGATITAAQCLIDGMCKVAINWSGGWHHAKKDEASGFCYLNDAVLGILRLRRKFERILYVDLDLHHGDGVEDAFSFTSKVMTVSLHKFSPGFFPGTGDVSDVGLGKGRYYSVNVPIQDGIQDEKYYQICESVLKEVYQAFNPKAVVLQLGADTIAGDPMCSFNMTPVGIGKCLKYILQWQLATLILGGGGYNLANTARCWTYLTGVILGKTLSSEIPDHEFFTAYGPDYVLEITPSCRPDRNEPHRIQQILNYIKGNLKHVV
Source text: as §8

92.1 cells [5] = experiment: MTT cell viability assay, UM cell line 92.1; type: cell-based, human; settings: 72 h treatment, compared with SAHA and LD10
Experimental: (§5) The anti-proliferative effects of the most promising HDAC inhibitors, VS16, VS13, SN2, and LD10 were evaluated on human UM cell lines (92.1 and Mel270) and SAHA was used as a positive control. First, we assessed by MTT assay the cell viability after a 72 h treatment at different concentrations. […] Similar results were found for ovarian carcinoma cell line A2780 and to a lesser extent for SKOV3 (Supplementary Figure S2).
(§6) Figure 7. MTT. In vitro cytotoxicity at the 72 h time point of the different compounds in human UM cell lines 92.1 and Mel270, as assessed by the MTT cell viability assay. Data are expressed as percent of control with the DMSO solvent, which was used at the same amount present in the highest compound concentration. Error bars represent SD of quadruplicates. One representative experiment is shown.
as §1
(§7) Cell viability after treatment was evaluated by a microculture tetrazolium reduction assay using MTT [3–(4,5-dimethyltiazol-2-yl) 2,5-diphenyltetrazolium bromide; Sigma]. At 72 h of treatment, 20 μl of MTT stock solution (2 mg/ml in PBS) were added to 200 μl cell cultures for an additional 4 h of incubation. MTT-containing culture medium was then removed and precipitated formazan was dissolved in 100 μl of DMSO. Results were read within 15 min in a microplate reader spectrometer at 540 nm (MEDGENIX 400 ATC, Medgenix Diagnostics), and the means of quadruplicates were calculated. Cell survival was expressed as a percentage of control samples.

Mel270 cells [6] = experiment: MTT cell viability assay, UM cell line Mel270; type: cell-based, human; settings: 72 h treatment, compared with SAHA and LD10
Experimental: as §5, §6, §1, §7

O=C(CCCCO/N=C/c1cnc2ccccc2c1)NO [Compound 2f, (E)-N-hydroxy-5-(((quinolin-3-ylmethylene)amino)oxy)pentanamide]
IC50 (HDAC1): 0.137 µM
folds more potent than SAHA ([1]; HeLa extract IC50 compared with SAHA): 3- to 5 fold
IC50 ([1]; means of at least three experiments, SD <20% of the mean): 0.054 µM
modulation of mRNA levels of HDAC target genes [2]: induced a pattern of gene modulation, which overlapped that of SAHA
effect on cell cycle distribution (Mel270 cells [3]): efficiently block the cell cycle at the G0/G1 phase
effect on cell cycle distribution (92.1 cells [4]): efficiently block the cell cycle at the G0/G1 phase
IC50 (HDAC8): 9.29 µM
effect on cell viability (MTT) (92.1 cells [5]): stronger effect
effect on cell viability (MTT) (Mel270 cells [6]): stronger effect
